According to ChEMBL document CHEMBL1122446:

Tests used:
[1] = target: T1, Dihydrofolate reductase (Homo sapiens) (UniProt P00374)
T1 sequence (whole entry): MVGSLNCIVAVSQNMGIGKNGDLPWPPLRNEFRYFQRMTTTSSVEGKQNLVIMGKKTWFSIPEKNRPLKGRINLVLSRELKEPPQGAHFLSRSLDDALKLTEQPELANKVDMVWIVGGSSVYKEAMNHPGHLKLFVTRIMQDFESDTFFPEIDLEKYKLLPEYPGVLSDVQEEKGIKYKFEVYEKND

[2] = target: Dihydrofolate reductase (Lactobacillus casei) (UniProt P00381); details: Lacticaseibacillus casei
[3] = target: T2, Dihydrofolate reductase (Gallus gallus) (UniProt P00378)
T2 sequence (whole entry): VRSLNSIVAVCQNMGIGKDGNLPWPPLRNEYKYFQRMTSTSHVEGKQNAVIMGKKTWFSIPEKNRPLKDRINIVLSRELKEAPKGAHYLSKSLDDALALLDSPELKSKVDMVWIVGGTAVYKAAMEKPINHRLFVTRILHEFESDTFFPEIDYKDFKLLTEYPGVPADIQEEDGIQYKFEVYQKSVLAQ

Dihydrofolate reductase (Lactobacillus casei), sequence (P00381 whole entry): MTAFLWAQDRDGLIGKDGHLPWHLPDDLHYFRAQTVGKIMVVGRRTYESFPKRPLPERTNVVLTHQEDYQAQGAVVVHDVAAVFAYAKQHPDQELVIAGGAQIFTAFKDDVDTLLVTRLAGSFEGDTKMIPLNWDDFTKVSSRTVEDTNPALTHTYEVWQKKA

SMILES | I / E100 [1] | I / E100 [2] | I / E100 [3]
CN(Cc1cnc2nc(N)nc(N)c2n1)c1ccc(C(=O)NC(CCCCN)C(=O)O)cc1 (stereo unspecified) | 1 | 1 | 1.4
CN(C)c1cccc2c(S(=O)(=O)NCCCCC(NC(=O)c3ccc(N(C)Cc4cnc5nc(N)nc(N)c5n4)cc3)C(=O)O)cccc12 (stereo unspecified) | 2.9 | 1.9 | 3.5
